# Experimental data taken from ChEMBL document CHEMBL1133620, “Selective cyclooxygenase-2 inhibitors: heteroaryl modified 1,2-diarylimidazoles are potent, orally active antiinflammatory agents” (J Med Chem, 2000).
# Target: Prostaglandin G/H synthase 1 (Homo sapiens, UniProt P23219)
# Test: not given
# Conditions: not given
# Chain of Prostaglandin G/H synthase 1 (P23219 whole entry): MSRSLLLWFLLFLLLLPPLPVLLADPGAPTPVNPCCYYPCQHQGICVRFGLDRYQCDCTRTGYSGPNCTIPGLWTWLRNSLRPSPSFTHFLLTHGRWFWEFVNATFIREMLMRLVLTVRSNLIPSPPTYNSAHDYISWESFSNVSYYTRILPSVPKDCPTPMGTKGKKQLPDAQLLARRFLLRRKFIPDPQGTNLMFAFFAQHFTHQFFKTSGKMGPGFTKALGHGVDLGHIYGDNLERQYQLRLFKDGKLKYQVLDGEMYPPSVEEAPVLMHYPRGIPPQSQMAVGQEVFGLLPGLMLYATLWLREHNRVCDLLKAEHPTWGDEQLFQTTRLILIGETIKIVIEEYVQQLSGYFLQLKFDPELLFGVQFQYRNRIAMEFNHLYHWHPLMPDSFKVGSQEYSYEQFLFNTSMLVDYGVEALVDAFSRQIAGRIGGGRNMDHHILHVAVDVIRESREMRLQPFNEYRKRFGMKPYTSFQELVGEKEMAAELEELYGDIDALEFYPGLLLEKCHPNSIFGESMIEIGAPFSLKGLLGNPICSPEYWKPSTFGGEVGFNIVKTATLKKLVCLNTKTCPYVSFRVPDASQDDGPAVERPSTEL
row,Structure (SMILES),IC50 [µM]
1,Cc1cncc(-c2nc(C(F)(F)F)cn2-c2ccc(S(N)(=O)=O)cc2)c1,> 1000
2,CS(=O)(=O)c1ccc(-n2cc(C(F)(F)F)nc2-c2ccccn2)cc1,> 1000
3,NS(=O)(=O)c1ccc(-n2cc(C(F)(F)F)nc2-c2cccnc2)cc1,> 1000
4,Cc1ccnc(-c2nc(C(F)(F)F)cn2-c2ccc(S(N)(=O)=O)cc2)c1,84
5,CS(=O)(=O)c1ccc(-n2cc(C(F)(F)F)nc2-c2cc3ccccc3cn2)cc1,32
6,Cc1csc(-c2nc(C(F)(F)F)cn2-c2ccc(S(N)(=O)=O)cc2)n1,> 1000
7,CS(=O)(=O)c1ccc(-n2cc(C(F)(F)F)nc2-c2cc(Br)cs2)cc1,> 1000
8,Cc1cn(-c2ccc(S(C)(=O)=O)cc2)c(-c2cccnc2)n1,> 100
9,CS(=O)(=O)c1ccc(-n2cc(CO)nc2-c2cccnc2)cc1,> 1000
10,Cc1ncccc1-c1nc(C(F)(F)F)cn1-c1ccc(S(C)(=O)=O)cc1,> 100
11,Cc1cc(-c2nc(C(F)(F)F)cn2-c2ccc(S(N)(=O)=O)cc2)no1,> 1000
12,Cc1ccsc1-c1nc(C(F)(F)F)cn1-c1ccc(S(C)(=O)=O)cc1,> 1000
13,COc1cncc(-c2nc(C(F)(F)F)cn2-c2ccc(S(C)(=O)=O)cc2)c1,> 100
14,CS(=O)(=O)c1ccc(-n2cc(C#N)nc2-c2cccnc2)cc1,> 100
15,CS(=O)(=O)c1ccc(-n2cc(C(F)(F)F)nc2-c2cncc(Br)c2)cc1,> 1000
16,CS(=O)(=O)c1ccc(-n2cc(C(F)(F)F)nc2-c2cccc3c2OCO3)cc1,> 100
17,Cc1ncc(-c2nc(C(F)(F)F)cn2-c2ccc(S(N)(=O)=O)cc2)s1,> 1000
18,Cc1ccncc1-c1nc(C(F)(F)F)cn1-c1ccc(S(C)(=O)=O)cc1,> 100
19,NS(=O)(=O)c1ccc(-n2cc(C(F)F)nc2-c2cccnc2)cc1,> 100
20,CS(=O)(=O)c1ccc(-n2cc(C(F)F)nc2-c2cccnc2)cc1,> 100
21,Cc1ccncc1-c1nc(C(F)(F)F)cn1-c1ccc(S(N)(=O)=O)cc1,> 100
22,Cc1ccc(-c2nc(C(F)(F)F)cn2-c2ccc(S(N)(=O)=O)cc2)nc1,302
23,Cc1nc(-c2nc(C(F)(F)F)cn2-c2ccc(S(C)(=O)=O)cc2)co1,> 100

# Species on record: Rattus norvegicus
# Test: animal or person
# Assay type: functional
# Conditions: not given
row,Structure (SMILES),ED50 [mg/kg]
1,Cc1cncc(-c2nc(C(F)(F)F)cn2-c2ccc(S(N)(=O)=O)cc2)c1,32
2,Cc1csc(-c2nc(C(F)(F)F)cn2-c2ccc(S(N)(=O)=O)cc2)n1,18.5
3,Cc1nc(-c2nc(C(F)(F)F)cn2-c2ccc(S(N)(=O)=O)cc2)cs1,14
4,Cc1ncccc1-c1nc(C(F)(F)F)cn1-c1ccc(S(N)(=O)=O)cc1,18
5,Cc1cccc(-c2nc(C(F)(F)F)cn2-c2ccc(S(N)(=O)=O)cc2)n1,20.3
6,Cc1ccc(-c2nc(C(F)(F)F)cn2-c2ccc(S(C)(=O)=O)cc2)nc1,20
7,CS(=O)(=O)c1ccc(-n2cc(C(F)(F)F)nc2-c2cccnc2)cc1,8.2
8,Cc1ccc(-c2nc(C(F)(F)F)cn2-c2ccc(S(C)(=O)=O)cc2)cn1,33

# Species on record: Rattus norvegicus
# Test: animal or person
# Assay type: functional
# Conditions: not given
# Remark: another data set of the same source
row,Structure (SMILES),ED50 [mg/kg]
1,Cc1cncc(-c2nc(C(F)(F)F)cn2-c2ccc(S(N)(=O)=O)cc2)c1,0.67
2,Cc1csc(-c2nc(C(F)(F)F)cn2-c2ccc(S(N)(=O)=O)cc2)n1,0.33
3,Cc1nc(-c2nc(C(F)(F)F)cn2-c2ccc(S(N)(=O)=O)cc2)cs1,0.57
4,Cc1ncccc1-c1nc(C(F)(F)F)cn1-c1ccc(S(N)(=O)=O)cc1,1
5,Cc1cccc(-c2nc(C(F)(F)F)cn2-c2ccc(S(N)(=O)=O)cc2)n1,0.64
6,Cc1ccc(-c2nc(C(F)(F)F)cn2-c2ccc(S(C)(=O)=O)cc2)nc1,1
7,Cc1cccnc1-c1nc(C(F)(F)F)cn1-c1ccc(S(C)(=O)=O)cc1,0.3
8,CS(=O)(=O)c1ccc(-n2cc(C(F)(F)F)nc2-c2cccnc2)cc1,0.25
9,Cc1ccc(-c2nc(C(F)(F)F)cn2-c2ccc(S(C)(=O)=O)cc2)cn1,0.2
10,COc1ccc2c(c1)c(CC(=O)O)c(C)n2C(=O)c1ccc(Cl)cc1 [INDOMETHACIN],0.1

# Species on record: Rattus norvegicus
# Test: animal or person
# Assay type: functional
# Conditions: not given
# Remark: another data set of the same source
row,Structure (SMILES),ED50 [%]
1,Cc1cccnc1-c1nc(C(F)(F)F)cn1-c1ccc(S(C)(=O)=O)cc1,35

# Same assay, conditions: Rattus norvegicus; read-out: ED50
row,Structure (SMILES),ED50 [mg/kg]
1,Cc1cncc(-c2nc(C(F)(F)F)cn2-c2ccc(S(N)(=O)=O)cc2)c1,7.5
2,Cc1csc(-c2nc(C(F)(F)F)cn2-c2ccc(S(N)(=O)=O)cc2)n1,13.4
3,Cc1nc(-c2nc(C(F)(F)F)cn2-c2ccc(S(N)(=O)=O)cc2)cs1,13.4
4,Cc1ncccc1-c1nc(C(F)(F)F)cn1-c1ccc(S(N)(=O)=O)cc1,6.9
5,Cc1cccc(-c2nc(C(F)(F)F)cn2-c2ccc(S(N)(=O)=O)cc2)n1,8.2
6,CS(=O)(=O)c1ccc(-n2cc(C(F)(F)F)nc2-c2cccnc2)cc1,5.4
7,Cc1ccc(-c2nc(C(F)(F)F)cn2-c2ccc(S(C)(=O)=O)cc2)cn1,41
8,CS(=O)(=O)c1ccc(-n2cc(C(F)(F)F)nc2-c2ccccc2)cc1,0.15
9,Cc1ccccc1-c1nc(C(F)(F)F)cn1-c1ccc(S(C)(=O)=O)cc1,18

# Species on record: Rattus norvegicus
# Test: not given
# Conditions: in vivo, po, 100 mg/kg
row,Structure (SMILES),No. of animals with damage
1,Cc1ncccc1-c1nc(C(F)(F)F)cn1-c1ccc(S(N)(=O)=O)cc1,0

# Species on record: Rattus norvegicus
# Test: not given
# Conditions: in vivo, po, 100 mg/kg
# Remark: another data set of the same source
row,Structure (SMILES),No. of animals with damage
1,Cc1cncc(-c2nc(C(F)(F)F)cn2-c2ccc(S(N)(=O)=O)cc2)c1,0
2,Cc1nc(-c2nc(C(F)(F)F)cn2-c2ccc(S(N)(=O)=O)cc2)cs1,0
3,Cc1cccc(-c2nc(C(F)(F)F)cn2-c2ccc(S(N)(=O)=O)cc2)n1,0
4,CS(=O)(=O)c1ccc(-n2cc(C(F)(F)F)nc2-c2cccnc2)cc1,0

# Species on record: Rattus norvegicus
# Test: not given
# Conditions: in vivo, po, 16 mg/kg
row,Structure (SMILES),No. of animals with damage
1,COc1ccc2c(c1)c(CC(=O)O)c(C)n2C(=O)c1ccc(Cl)cc1 [INDOMETHACIN],6

# Species on record: Rattus norvegicus
# Test: not given
# Conditions: in vivo, po, 100 mg/kg
# Remark: another data set of the same source
row,Structure (SMILES),No. of animals with damage
1,CS(=O)(=O)c1ccc(-n2cc(C(F)(F)F)nc2-c2cccnc2)cc1,0

# Species on record: Rattus norvegicus
# Test: not given
# Conditions: in vivo, po, 100 mg/kg
# Remark: another data set of the same source
row,Structure (SMILES),No. of animals with damage
1,Cc1nc(-c2nc(C(F)(F)F)cn2-c2ccc(S(N)(=O)=O)cc2)cs1,0

# Species on record: Rattus norvegicus
# Test: not given
# Conditions: in vivo, po, 100 mg/kg
# Remark: another data set of the same source
row,Structure (SMILES),No. of animals with damage
1,Cc1ncccc1-c1nc(C(F)(F)F)cn1-c1ccc(S(N)(=O)=O)cc1,0

# Species on record: Rattus norvegicus
# Test: not given
# Conditions: in vivo, po, 100 mg/kg
# Remark: another data set of the same source
row,Structure (SMILES),No. of animals with damage
1,Cc1cncc(-c2nc(C(F)(F)F)cn2-c2ccc(S(N)(=O)=O)cc2)c1,0
2,Cc1cccc(-c2nc(C(F)(F)F)cn2-c2ccc(S(N)(=O)=O)cc2)n1,0

# Species on record: Rattus norvegicus
# Test: not given
# Conditions: in vivo, po, 16 mg/kg
# Remark: another data set of the same source
row,Structure (SMILES),No. of animals with damage
1,COc1ccc2c(c1)c(CC(=O)O)c(C)n2C(=O)c1ccc(Cl)cc1 [INDOMETHACIN],6

# Test system: not listed separately
# Test: in vivo
# Conditions: rat, iv, 10 mg/kg
row,Structure (SMILES),half-life [h]
1,Cc1ncccc1-c1nc(C(F)(F)F)cn1-c1ccc(S(N)(=O)=O)cc1,4.85

# Test system: not listed separately
# Test: in vivo
# Conditions: rat, iv, 10 mg/kg
# Remark: another data set of the same source
row,Structure (SMILES),half-life [h]
1,Cc1cncc(-c2nc(C(F)(F)F)cn2-c2ccc(S(N)(=O)=O)cc2)c1,4.96

# Test system: not listed separately
# Test: in vivo
# Conditions: rat, iv, 10 mg/kg
# Remark: another data set of the same source
row,Structure (SMILES),half-life [h]
1,CS(=O)(=O)c1ccc(-n2cc(C(F)(F)F)nc2-c2cccnc2)cc1,11.6

# Test system: not listed separately
# Test: in vivo
# Conditions: rat, iv, 2 mg/kg
row,Structure (SMILES),half-life [h]
1,Cc1nc(-c2nc(C(F)(F)F)cn2-c2ccc(S(N)(=O)=O)cc2)cs1,3.4

# Species on record: Homo sapiens
# Test: tissue or blood
# Conditions: not given
row,Structure (SMILES),IC50 [µM]
1,CS(=O)(=O)c1ccc(-n2cc(C(F)(F)F)nc2-c2ccccn2)cc1,> 10
2,CS(=O)(=O)c1ccc(-n2cc(C(F)(F)F)nc2-c2cccnc2)cc1,41.6

# Species on record: Homo sapiens
# Test: tissue or blood
# Conditions: not given
# Remark: another data set of the same source
row,Structure (SMILES),IC50 [µM]
1,CS(=O)(=O)c1ccc(-n2cc(C(F)(F)F)nc2-c2ccccn2)cc1,0.24
2,CS(=O)(=O)c1ccc(-n2cc(C(F)(F)F)nc2-c2cccnc2)cc1,0.2

# Species on record: Rattus norvegicus
# Test: animal or person
# Conditions: read-out: Inhibition
row,Structure (SMILES),inhibition in vivo at 2 mg/kg [%]
1,Cc1cncc(-c2nc(C(F)(F)F)cn2-c2ccc(S(N)(=O)=O)cc2)c1,96
2,NS(=O)(=O)c1ccc(-n2cc(C(F)(F)F)nc2-c2cncc(Br)c2)cc1,26
3,COc1ccc(-c2nc(C(F)(F)F)cn2-c2ccc(S(C)(=O)=O)cc2)cn1,100
4,CS(=O)(=O)c1ccc(-n2cc(C(F)(F)F)nc2-c2nccc3ccccc23)cc1,60
5,CS(=O)(=O)c1ccc(-n2cc(C(F)(F)F)nc2-c2ccccn2)cc1,100
6,NS(=O)(=O)c1ccc(-n2cc(C(F)(F)F)nc2-c2cccnc2)cc1,100
7,Cc1ccc(-c2nc(C(F)(F)F)cn2-c2ccc(S(N)(=O)=O)cc2)cn1,100
8,Cc1ccnc(-c2nc(C(F)(F)F)cn2-c2ccc(S(N)(=O)=O)cc2)c1,75
9,Cc1csc(-c2nc(C(F)(F)F)cn2-c2ccc(S(N)(=O)=O)cc2)n1,100
10,Cc1nc(-c2nc(C(F)(F)F)cn2-c2ccc(S(N)(=O)=O)cc2)cs1,100
11,Cc1ncccc1-c1nc(C(F)(F)F)cn1-c1ccc(S(N)(=O)=O)cc1,100
12,Cc1cccc(-c2nc(C(F)(F)F)cn2-c2ccc(S(N)(=O)=O)cc2)n1,100
13,CS(=O)(=O)c1ccc(-n2cc(C(F)(F)F)nc2-c2cc(Br)cs2)cc1,75
14,CS(=O)(=O)c1ccc(-n2cc(C(F)(F)F)nc2-c2cnc3ccccc3c2)cc1,90
15,Cc1ncccc1-c1nc(C(F)(F)F)cn1-c1ccc(S(C)(=O)=O)cc1,81
16,Cc1cc(-c2nc(C(F)(F)F)cn2-c2ccc(S(N)(=O)=O)cc2)no1,92
17,Cc1ccsc1-c1nc(C(F)(F)F)cn1-c1ccc(S(C)(=O)=O)cc1,11
18,CS(=O)(=O)c1ccc(-n2cc(C(F)(F)F)nc2-c2cncc(Br)c2)cc1,90

row,Structure (SMILES),inhibition in vivo at 2 mg/kg [%]
1,CS(=O)(=O)c1ccc(-n2cc(C(F)(F)F)nc2-c2cccc3c2OCO3)cc1,11
2,Cc1ncc(-c2nc(C(F)(F)F)cn2-c2ccc(S(N)(=O)=O)cc2)s1,75
3,Cc1cccc(-c2nc(C(F)(F)F)cn2-c2ccc(S(C)(=O)=O)cc2)n1,92
4,Cc1cccnc1-c1nc(C(F)(F)F)cn1-c1ccc(S(N)(=O)=O)cc1,100
5,NS(=O)(=O)c1ccc(-n2cc(C(F)(F)F)nc2-c2cccs2)cc1,95
6,Cc1ccnc(-c2nc(C(F)(F)F)cn2-c2ccc(S(C)(=O)=O)cc2)c1,84
7,NS(=O)(=O)c1ccc(-n2cc(C(F)F)nc2-c2cccnc2)cc1,19
8,Cc1ccc(-c2nc(C(F)(F)F)cn2-c2ccc(S(C)(=O)=O)cc2)nc1,97
9,Cc1cncc(-c2nc(C(F)(F)F)cn2-c2ccc(S(C)(=O)=O)cc2)c1,75
10,Cc1cccnc1-c1nc(C(F)(F)F)cn1-c1ccc(S(C)(=O)=O)cc1,100
11,Cn1cc(-c2nc(C(F)(F)F)cn2-c2ccc(S(C)(=O)=O)cc2)c2ccccc21,0
12,CS(=O)(=O)c1ccc(-n2cc(C(F)(F)F)nc2-c2cccnc2)cc1,100
13,Cc1ccc(-c2nc(C(F)(F)F)cn2-c2ccc(S(C)(=O)=O)cc2)cn1,93
14,Cc1nc(-c2nc(C(F)(F)F)cn2-c2ccc(S(C)(=O)=O)cc2)cs1,73
15,Cc1ccc(-c2nc(C(F)(F)F)cn2-c2ccc(S(N)(=O)=O)cc2)nc1,100
16,Cc1nc(-c2nc(C(F)(F)F)cn2-c2ccc(S(C)(=O)=O)cc2)co1,0
17,CS(=O)(=O)c1ccc(-n2cc(C(F)(F)F)nc2-c2cccs2)cc1,24
